System: subjects with dIBS
Test: Study of rifaximin BID in subjects with dIBS: adequate relief of IBS symptoms and bloating
Format: in vivo, human
Conditions: for Percentage of Subjects with Number of Weeks with Adequate Relief of Bloating Symptoms / Percentage of Subjects with Number of Weeks with Adequate Relief of IBS Symptoms: RFX 550 mg BID, N = 191, ITT
Experimental: This example relates to a study of rifaximin in subjects with dIBS. […] There were two measures of efficacy assessed. Subjects were questioned on the relief of overall IBS symptoms and bloating. […] The analyses defined success as a “yes” response to questions regarding adequate relief.
All subpopulations in the study responded to therapy. Baseline severity was determined using 7-point Lickert scales during screening for Abdominal Pain/Discomfort and Bloating, and the number, type (normal, hard, loose) and urgency of bowel movements.
Duration of effect was assessed in a follow-up period. Subjects that responded in the 4 week treatment period were followed for an additional 3 months.
The effect of treatment on the percentage of subjects who reported adequate relief of IBS and bloating symptoms for at least two of the final three weeks during the treatment phase (Weeks 1 to 4) is shown in Tables 3-5 and FIGS. 4-6 below.
Two measures of efficacy were assessed independently. The first was the proportion of subjects who provided a ‘yes’ response to the weekly SGA question: “In the past 7 days, have you had adequate relief of your IBS symptoms? (yes/no)”. The second endpoint was the proportion of subjects who provide a ‘yes’ response to the weekly individual symptom question: “In the past 7 days, have you had adequate relief of your symptom of bloating? (yes/no)”. Durability was based on the proportion of subjects that had adequate relief over the entire treatment phase.
It is reported herein that the severity of baseline symptoms of abdominal pain and bloating influenced the response to rifaximin treatment. The co-primary endpoints in this analysis assessed weekly yes/no responses to questions regarding adequate relief of global IBS symptoms and IBS-associated bloating. Severity of baseline IBS symptoms was evaluated as a potential confounder of clinical response and was categorized as mild/moderate or severe based on a mean score of ≤4 vs. >4 (on a 7-point scale) for bloating and abdominal pain.
The Weekly yes/no responses to questions regarding adequate relief of global IBS symptoms and IBS-associated bloating were assessed. Clinical response was defined as adequate relief for 2 of the final 3 treatment weeks (wk 2, 3, or 4). Severity of baseline IBS symptoms was evaluated as a potential confounder of clinical response and was categorized as mild/moderate or severe based on a mean score of ≤4 versus >4 (on a 7-point scale (0=not bothersome; 6=very bothersome)) for bloating and abdominal pain.

## (2S,16Z,18E,20S,21S,22R, 23R,24R,25S,26S,27S,28E)-5,6,21,23,25 Pentahydroxy-27-methoxy -2,4,11,16,20,22,24,26-octamethyl-2,7-(epoxypentadeca-(1,11,13)trienimino)benzofuro (4,5-e) pyrido(1,2,-a) benzimidazole-1,15(2H)-dione,25-acetate [Rifaximin]
0 weeks
  Percentage of Subjects with Number of Weeks with Adequate Relief of Bloating Symptoms: 35%
  Percentage of Subjects with Number of Weeks with Adequate Relief of IBS Symptoms: 33%
550 mg BID for 2 weeks
  Adequate relief of IBS related symptoms (SGA) and IBS-related bloating (IBS-B): statistically significant relief
1 week
  Percentage of Subjects with Number of Weeks with Adequate Relief of Bloating Symptoms: 14%
  Percentage of Subjects with Number of Weeks with Adequate Relief of IBS Symptoms: 11%
2 weeks
  Percentage of Subjects with Number of Weeks with Adequate Relief of Bloating Symptoms: 15%
  Percentage of Subjects with Number of Weeks with Adequate Relief of IBS Symptoms: 15%
3 weeks
  Percentage of Subjects with Number of Weeks with Adequate Relief of Bloating Symptoms: 20%
  Percentage of Subjects with Number of Weeks with Adequate Relief of IBS Symptoms: 23%
4 weeks
  Percentage of Subjects with Number of Weeks with Adequate Relief of Bloating Symptoms: 14%
  Percentage of Subjects with Number of Weeks with Adequate Relief of IBS Symptoms: 16%
Age <65
  Treatment effect (Bloating): 6.8%
  Treatment effect (IBS Sx): 6.9%
Age ≥65
  Treatment effect (Bloating): 3.2%
  Treatment effect (IBS Sx): 19.1%
Diabetes History: N
  Treatment effect (Bloating): 7.4%
  Treatment effect (IBS Sx): 9.5%
Diabetes History: Y
  Treatment effect (Bloating): −5.6%
  Treatment effect (IBS Sx): −12.7%
Disease Duration: 10-20 y
  Treatment effect (Bloating): 11.7%
  Treatment effect (IBS Sx): 20.1%
Disease Duration: >20 y
  Treatment effect (Bloating): 35.1%
  Treatment effect (IBS Sx): 46.6%
Disease Duration: ≤10 y
  Treatment effect (Bloating): 2.8%
  Treatment effect (IBS Sx): 1.8%
Female, RFX 275 2 w (N = 95)
  Adequate Relief of Bloating at the End of the Treatment Phase: Failure: 52 (64.2%) n (%)
  Adequate Relief of Bloating at the End of the Treatment Phase: Success: 29 (35.8%) n (%)
  Adequate Relief of IBS Symptoms at the End of the Treatment Phase: Failure: 46 (56.8%) n (%)
  Adequate Relief of IBS Symptoms at the End of the Treatment Phase: Success: 35 (43.2%) n (%)
Female, RFX 550 2 w (N = 99)
  Adequate Relief of Bloating at the End of the Treatment Phase: Failure: 45 (61.6%) n (%)
  Adequate Relief of Bloating at the End of the Treatment Phase: Success: 28 (38.4%) n (%)
  Adequate Relief of IBS Symptoms at the End of the Treatment Phase: Failure: 44 (60.3%) n (%)
  Adequate Relief of IBS Symptoms at the End of the Treatment Phase: Success: 29 (39.7%) n (%)
Female, RFX 550 2 w (N = 191)
  Adequate Relief of Bloating at the End of the Treatment Phase: Failure: 74 (54.0%) n (%)
  Adequate Relief of Bloating at the End of the Treatment Phase: Success: 63 (46.0%) n (%)
  Adequate Relief of IBS Symptoms at the End of the Treatment Phase: Failure: 66 (48.2%) n (%)
  Adequate Relief of IBS Symptoms at the End of the Treatment Phase: Success: 71 (51.8%) n (%)
Female, RFX 550 2 w vs. PBO
  odds ratio, Adequate Relief of Bloating at the End of the Treatment Phase: Comparison of RFX 550 2 w vs. PBO p-value: 0.5366, odds ratio: 1.166 (0.716, 1.898)
  odds ratio, Adequate Relief of IBS Symptoms at the End of the Treatment Phase: Comparison of RFX 550 2 w vs. PBO p-value: 0.7608, odds ratio: 1.078 (0.665, 1.747)
Female, RFX 550 4 w (N = 98)
  Adequate Relief of Bloating at the End of the Treatment Phase: Failure: 44 (57.9%) n (%)
  Adequate Relief of Bloating at the End of the Treatment Phase: Success: 32 (42.1%) n (%)
  Adequate Relief of IBS Symptoms at the End of the Treatment Phase: Failure: 42 (55.3%) n (%)
  Adequate Relief of IBS Symptoms at the End of the Treatment Phase: Success: 34 (44.7%) n (%)
Gender: F
  Treatment effect (Bloating): 3.9%
  Treatment effect (IBS Sx): 3.5%
Gender: M
  Treatment effect (Bloating): 13.6%
  Treatment effect (IBS Sx): 21%
Male, RFX 275 2 w (N = 95)
  Adequate Relief of Bloating at the End of the Treatment Phase: Failure: 8 (57.1%) n (%)
  Adequate Relief of Bloating at the End of the Treatment Phase: Success: 6 (42.9%) n (%)
  Adequate Relief of IBS Symptoms at the End of the Treatment Phase: Failure: 9 (64.3%) n (%)
  Adequate Relief of IBS Symptoms at the End of the Treatment Phase: Success: 5 (35.7%) n (%)
Male, RFX 550 2 w (N = 99)
  Adequate Relief of Bloating at the End of the Treatment Phase: Failure: 16 (61.5%) n (%)
  Adequate Relief of Bloating at the End of the Treatment Phase: Success: 10 (38.5%) n (%)
  Adequate Relief of IBS Symptoms at the End of the Treatment Phase: Failure: 14 (53.8%) n (%)
  Adequate Relief of IBS Symptoms at the End of the Treatment Phase: Success: 12 (46.2%) n (%)
Male, RFX 550 2 w (N = 191)
  Adequate Relief of Bloating at the End of the Treatment Phase: Failure: 29 (53.7%) n (%)
  Adequate Relief of Bloating at the End of the Treatment Phase: Success: 25 (46.3%) n (%)
  Adequate Relief of IBS Symptoms at the End of the Treatment Phase: Failure: 25 (46.3%) n (%)

Source: patent US11564912B2, “Methods for treating irritable bowel syndrome (IBS)” (Salix Pharmaceuticals, Inc., priority 2008, dated 2023)
